Measurements taken from ChEMBL document CHEMBL4373693, “Virtual Screening Approach and Investigation of Structure-Activity Relationships To Discover Novel Bacterial Topoisomerase Inhibitors Targeting Gram-Positive and Gram-Negative Pathogens” (J Med Chem, 2019).
In brackets after ≈: the same amount, converted by molar mass.

What was measured:
[1] = target: DNA gyrase subunit A (Escherichia coli K-12, UniProt P0AES4); experiment: Inhibition of Escherichia coli ATCC 25922 DNA gyrase A assessed as reduction in enzyme-mediated supercoiling of relaxed pBR322 DNA by ethidium bromide staining based gel electrophoresis method
Chain of DNA gyrase subunit A (Escherichia coli K-12, UniProt P0AES4) (P0AES4 whole entry): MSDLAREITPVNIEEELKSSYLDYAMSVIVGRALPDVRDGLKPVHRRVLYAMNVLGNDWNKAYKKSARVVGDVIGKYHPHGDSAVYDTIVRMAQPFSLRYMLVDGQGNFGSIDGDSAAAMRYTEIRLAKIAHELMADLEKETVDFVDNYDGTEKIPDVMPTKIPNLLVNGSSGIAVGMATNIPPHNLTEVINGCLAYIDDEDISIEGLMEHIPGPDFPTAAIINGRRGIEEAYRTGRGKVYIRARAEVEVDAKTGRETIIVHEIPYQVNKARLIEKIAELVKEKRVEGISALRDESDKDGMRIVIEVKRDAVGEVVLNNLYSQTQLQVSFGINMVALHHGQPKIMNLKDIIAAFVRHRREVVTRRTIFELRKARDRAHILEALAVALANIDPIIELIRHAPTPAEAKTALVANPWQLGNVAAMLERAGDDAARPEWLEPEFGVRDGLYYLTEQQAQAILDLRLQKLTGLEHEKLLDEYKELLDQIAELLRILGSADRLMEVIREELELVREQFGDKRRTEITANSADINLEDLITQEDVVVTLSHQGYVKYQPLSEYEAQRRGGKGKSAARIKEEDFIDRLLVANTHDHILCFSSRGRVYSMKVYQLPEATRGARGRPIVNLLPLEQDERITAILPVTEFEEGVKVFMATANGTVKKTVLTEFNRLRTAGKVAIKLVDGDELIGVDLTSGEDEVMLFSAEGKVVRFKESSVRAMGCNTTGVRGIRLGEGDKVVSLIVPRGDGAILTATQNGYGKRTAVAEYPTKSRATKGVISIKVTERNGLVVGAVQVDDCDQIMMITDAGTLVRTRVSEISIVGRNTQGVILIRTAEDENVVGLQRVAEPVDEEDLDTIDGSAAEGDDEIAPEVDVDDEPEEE

[2] = target: DNA gyrase subunit A (Staphylococcus aureus, UniProt P20831); experiment: Inhibition of Staphylococcus aureus ATCC 29213 DNA gyrase A assessed as reduction in enzyme-mediated supercoiling of relaxed pBR322 DNA by ethidium bromide staining based gel electrophoresis method
Chain of DNA gyrase subunit A (Staphylococcus aureus, UniProt P20831) (P20831 whole entry): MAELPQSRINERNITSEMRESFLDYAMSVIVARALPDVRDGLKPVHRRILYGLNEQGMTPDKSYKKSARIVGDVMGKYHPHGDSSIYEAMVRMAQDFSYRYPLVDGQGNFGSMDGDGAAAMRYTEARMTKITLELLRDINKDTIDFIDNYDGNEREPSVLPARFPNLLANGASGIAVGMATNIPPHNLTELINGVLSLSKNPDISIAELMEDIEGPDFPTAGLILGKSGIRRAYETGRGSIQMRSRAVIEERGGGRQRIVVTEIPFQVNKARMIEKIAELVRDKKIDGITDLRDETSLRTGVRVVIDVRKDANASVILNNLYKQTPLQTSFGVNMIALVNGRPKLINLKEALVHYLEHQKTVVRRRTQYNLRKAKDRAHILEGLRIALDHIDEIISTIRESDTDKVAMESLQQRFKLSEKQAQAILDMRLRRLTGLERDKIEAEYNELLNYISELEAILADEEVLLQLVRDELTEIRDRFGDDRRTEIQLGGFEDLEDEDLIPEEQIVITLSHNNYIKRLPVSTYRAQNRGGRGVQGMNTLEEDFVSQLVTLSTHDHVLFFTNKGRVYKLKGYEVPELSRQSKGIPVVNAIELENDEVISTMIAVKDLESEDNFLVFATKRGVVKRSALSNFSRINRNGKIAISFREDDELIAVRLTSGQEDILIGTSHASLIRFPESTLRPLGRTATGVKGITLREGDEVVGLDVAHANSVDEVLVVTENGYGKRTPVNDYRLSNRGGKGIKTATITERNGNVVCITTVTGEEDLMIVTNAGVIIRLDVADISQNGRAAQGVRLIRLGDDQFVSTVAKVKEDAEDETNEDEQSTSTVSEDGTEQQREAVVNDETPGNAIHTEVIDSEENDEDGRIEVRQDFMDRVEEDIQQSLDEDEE

[3] = target: T1, DNA topoisomerase 4 subunit A (Escherichia coli K-12, UniProt P0AFI2); experiment: Inhibition of Escherichia coli ATCC 25922 DNA topoisomerase 4 subunit ParC assessed as reduction in decatenation of kinetoplast DNA incubated for 30 mins by ethidium bromide staining based gel electrophoresis method
T1 sequence (P0AFI2 whole entry): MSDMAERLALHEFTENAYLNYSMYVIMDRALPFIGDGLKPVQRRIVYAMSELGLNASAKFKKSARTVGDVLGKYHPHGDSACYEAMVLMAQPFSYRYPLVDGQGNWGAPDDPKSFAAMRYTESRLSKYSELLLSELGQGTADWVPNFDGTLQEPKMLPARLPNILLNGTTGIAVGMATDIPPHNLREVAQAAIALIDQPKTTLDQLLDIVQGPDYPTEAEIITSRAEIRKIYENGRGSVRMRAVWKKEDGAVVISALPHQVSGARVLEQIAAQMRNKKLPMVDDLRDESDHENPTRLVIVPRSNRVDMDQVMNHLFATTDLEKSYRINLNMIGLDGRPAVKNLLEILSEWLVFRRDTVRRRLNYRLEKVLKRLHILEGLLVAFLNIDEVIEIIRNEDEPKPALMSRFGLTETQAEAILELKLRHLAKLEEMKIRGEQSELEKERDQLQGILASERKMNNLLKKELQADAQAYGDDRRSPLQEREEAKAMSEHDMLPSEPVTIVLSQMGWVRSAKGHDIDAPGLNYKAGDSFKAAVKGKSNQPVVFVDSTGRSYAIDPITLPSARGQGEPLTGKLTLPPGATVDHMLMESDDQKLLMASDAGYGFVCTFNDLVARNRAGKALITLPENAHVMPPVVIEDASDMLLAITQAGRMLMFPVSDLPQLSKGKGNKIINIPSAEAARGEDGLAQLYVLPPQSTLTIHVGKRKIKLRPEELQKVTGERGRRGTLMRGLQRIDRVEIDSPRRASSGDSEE

[4] = target: DNA topoisomerase 4 subunit A (Staphylococcus aureus, UniProt P0C1U9); experiment: Inhibition of Staphylococcus aureus ATCC 29213 DNA topoisomerase 4 subunit ParC assessed as reduction in decatenation of kinetoplast DNA incubated for 30 mins by ethidium bromide staining based gel electrophoresis method
Chain of DNA topoisomerase 4 subunit A (Staphylococcus aureus, UniProt P0C1U9) (P0C1U9 whole entry): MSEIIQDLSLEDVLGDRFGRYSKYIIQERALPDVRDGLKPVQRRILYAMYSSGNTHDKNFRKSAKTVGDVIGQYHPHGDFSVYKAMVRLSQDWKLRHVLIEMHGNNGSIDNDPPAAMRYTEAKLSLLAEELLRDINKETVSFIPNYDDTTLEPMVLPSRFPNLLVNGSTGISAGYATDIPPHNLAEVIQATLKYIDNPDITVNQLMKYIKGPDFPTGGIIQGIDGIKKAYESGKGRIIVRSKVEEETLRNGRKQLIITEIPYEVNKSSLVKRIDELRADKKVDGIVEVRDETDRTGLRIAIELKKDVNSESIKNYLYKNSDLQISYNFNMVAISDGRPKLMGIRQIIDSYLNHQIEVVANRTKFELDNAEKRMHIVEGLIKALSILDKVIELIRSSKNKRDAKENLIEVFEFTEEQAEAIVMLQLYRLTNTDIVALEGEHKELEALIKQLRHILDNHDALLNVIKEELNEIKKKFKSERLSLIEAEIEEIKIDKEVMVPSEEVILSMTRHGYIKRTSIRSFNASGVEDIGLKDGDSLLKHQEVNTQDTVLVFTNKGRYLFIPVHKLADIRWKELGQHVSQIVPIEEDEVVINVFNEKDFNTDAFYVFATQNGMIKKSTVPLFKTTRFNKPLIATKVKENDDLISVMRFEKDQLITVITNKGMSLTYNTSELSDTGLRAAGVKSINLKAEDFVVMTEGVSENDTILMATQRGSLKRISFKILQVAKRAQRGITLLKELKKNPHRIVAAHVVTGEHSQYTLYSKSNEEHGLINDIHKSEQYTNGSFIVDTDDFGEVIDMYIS

[5] = tested on: Escherichia coli; experiment: Antibacterial activity against Escherichia coli ATCC 25922 after 16 to 24 hrs by broth microdilution method; type: functional
[6] = tested on: Staphylococcus aureus; experiment: Antibacterial activity against Staphylococcus aureus ATCC 29213 after 16 to 24 hrs by broth microdilution method; type: functional
[7] = tested on: Staphylococcus aureus; experiment: Antibacterial activity against Staphylococcus aureus BAA-1720 after 16 to 24 hrs by broth microdilution method; type: functional
[8] = tested on: Pseudomonas aeruginosa; experiment: Antibacterial activity against Pseudomonas aeruginosa ATCC 27853 after 16 to 24 hrs by CLSI method; type: functional

Row | Structure (SMILES) | IC50 [1] [µM] | IC50 [2] [µM] | IC50 [3] [µM] | IC50 [4] [µM] | MIC [5] [µg/mL] | MIC [6] [µg/mL] | MIC [7] [µg/mL] | MIC [8] [µg/mL]
1 | O=c1nc(NC[C@@H](O)CN2CCN(c3nccc4ccc(F)cc34)CC2)c2ccccc2o1 | 1.5 | 0.6 | 0.4 | 0.3 | 4 (≈ 8.9 µM) | 0.25 (≈ 0.556 µM) | 1 (≈ 2.22 µM) | > 8
2 | O=c1cc(NCCCN2CCN(c3nccc4ccccc34)CC2)c2cc(F)ccc2o1 | 1.2 | 3.9 | 1.3 | 3.1 | 0.5 (≈ 1.16 µM) | 4 (≈ 9.25 µM) | 2 (≈ 4.62 µM) | 
3 | O=c1cc(NCCCN2CCN(c3nccc4ncccc34)CC2)c2ccccc2o1 | 40.6 | 26.8 | 29.3 | 83.8 |  |  |  | 
4 | O=c1cc(NCCCN2CCN(c3nccc4ccc(F)cc34)CC2)c2c(o1)CCOC2 | 6.3 | 19 | 59 | 4 |  |  |  | 
5 | COc1cc2ccccc2c(N2CCN(CCCNc3cc(=O)oc4ccccc34)CC2)n1 | 66 | 43.3 | 2.4 | 137 |  |  |  | 
6 | O=C(CCN1CCN(c2nccc3ccc(F)cc23)CC1)Nc1cc(=O)oc2ccccc12 | 1.1 | 10.5 | 0.7 | 39.7 |  |  |  | 
7 | O=c1cc(N[C@H]2C[C@H](N3CCN(c4nccc5ccccc45)CC3)C2)c2ccccc2o1 | 2.1 | 5.6 | 2.6 | 11.6 |  |  |  | 
8 | O=c1cc(NCCCN2CCN(c3nccc4ccc(F)cc34)CC2)c2c(o1)CCS(=O)(=O)C2 | 2.9 | 7.8 | 52.5 | 2.1 |  |  |  | 
9 | Cc1c(NCCCN2CCN(c3nccc4ccc(F)cc34)CC2)c2ccccc2oc1=O | 1.3 | 16.9 | 2.2 | > 100 |  |  |  | 
10 | O=c1cc(NCCCN2CCN(c3nccc4ccccc34)CC2)c2ccccc2o1 | 0.5 | 14 | 10 | 90 | 4 (≈ 9.65 µM) | > 32 | > 32 | > 32
11 | O=c1cc(NC[C@@H](O)CN2CCN(c3nccc4ccc(F)cc34)CC2)c2ccccc2o1 | 1.1 | 1.6 | 1.3 | 3 | 2 (≈ 4.46 µM) | 1 (≈ 2.23 µM) | 1 (≈ 2.23 µM) | 4 (≈ 8.92 µM)
12 | Cc1cccc2oc(=O)cc(NCCCN3CCN(c4nccc5ccc(F)cc45)CC3)c12 | 2.4 | 2.1 | 3.1 | > 100 |  |  |  | 
13 | Cc1ccc2ccnc(N3CCN(CCCNc4cc(=O)oc5ccccc45)CC3)c2c1 | 2.6 | 9.6 | 3.8 | 52 |  |  |  | 
14 | O=c1cc(NC[C@H](O)CN2CCN(c3nccc4ccc(F)cc34)CC2)c2ccccc2o1 | 1.8 | 1.5 | 1.1 | 1.7 | 4 (≈ 8.92 µM) | 1 (≈ 2.23 µM) | 0.5 (≈ 1.11 µM) | 8 (≈ 17.8 µM)
15 | Cc1cc2ccccc2c(N2CCN(CCCNc3cc(=O)oc4ccccc34)CC2)n1 | 4.8 | 33.1 |  | 7.5 |  |  |  | 
16 | O=c1cc(NCCCN2CCN(c3nccc4ccc(F)cc34)CC2)c2c(o1)CCNC2 | 22.8 | 164 | 7.3 | > 100 |  |  |  | 
17 | O=c1cc(NCCCN2CCN(c3nccc4ccccc34)CC2)c2c(o1)CCCC2 | 7.6 | 3.7 | 7.8 | 52.8 |  |  |  | 
18 | O=c1cc(NCCCN2CCN(c3nc(F)cc4ccccc34)CC2)c2ccccc2o1 | 0.9 | 2.6 | 1.9 | 7.1 | 4 (≈ 9.25 µM) | 4 (≈ 9.25 µM) | 2 (≈ 4.62 µM) | 4 (≈ 9.25 µM)

Row | Structure (SMILES) | IC50 [1] [µM] | IC50 [2] [µM] | IC50 [3] [µM] | IC50 [4] [µM] | MIC [5] [µg/mL] | MIC [6] [µg/mL] | MIC [7] [µg/mL] | MIC [8] [µg/mL]
19 | O=C1CN(c2nccc3ccccc23)CCN1CCCNc1cc(=O)oc2ccccc12 | 46.5 | > 100 | 28.5 | > 100 |  |  |  | 
20 | COc1ccc2ccnc(N3CCN(CCCNc4cc(=O)oc5ccccc45)CC3)c2c1 | 3.2 | 1.1 | 0.9 | 6.7 | 4 (≈ 9 µM) | 2 (≈ 4.5 µM) | 1 (≈ 2.25 µM) | 8 (≈ 18 µM)
21 | CN(CCCN1CCN(c2nccc3ccccc23)CC1)c1cc(=O)oc2ccccc12 | 31.7 | 12.1 | 22.9 | > 100 |  |  |  | 
22 | O=c1cc(NCCCN2CCN(c3nccc4ccc(Cl)cc34)CC2)c2ccccc2o1 | 0.9 | 4.5 | 2.4 | 5.6 | 2 (≈ 4.45 µM) | 4 (≈ 8.91 µM) | 2 (≈ 4.45 µM) | 8 (≈ 17.8 µM)
23 | O=c1cc(N[C@H]2C[C@@H](N3CCN(c4nccc5ccccc45)CC3)C2)c2ccccc2o1 | 1.1 | 1.2 | 0.9 | > 100 |  |  |  | 
24 | CN(C)c1ccc2ccnc(N3CCN(CCCNc4cc(=O)oc5ccccc45)CC3)c2c1 | 5.6 | 4.6 | 8.8 | 11.2 |  |  |  | 
25 | N#Cc1cc2ccccc2c(N2CCN(CCCNc3cc(=O)oc4ccccc34)CC2)n1 | 5.6 | 3.6 | 3.9 | > 100 |  |  |  | 
26 | O=c1cc(NC2CCN(CCCc3ccccc3)CC2)c2cc(Cl)ccc2o1 | > 800 | 27.8 | 4.1 | 100 to 200 |  |  |  | 
27 | O=c1cc(NCCCN2CCN(c3nccc4ccccc34)CC2)c2cc(Cl)ccc2o1 | 0.6 | 5.2 | 1.2 | 5.5 | 0.5 (≈ 1.11 µM) | 8 (≈ 17.8 µM) | 4 (≈ 8.91 µM) | 4 (≈ 8.91 µM)
28 | O=c1cc(NCCCN2CCN(c3nc(Cl)cc4ccccc34)CC2)c2ccccc2o1 | 2.3 | 12.1 | 3.2 | 10.2 |  |  |  | 
29 | O=c1cc(NCC(O)CN2CCN(c3nccc4ncccc34)CC2)c2cc(F)ccc2o1 (racemic) | 0.15 | 1.1 | 0.2 | 0.3 | 2 (≈ 4.45 µM) | 4 (≈ 8.9 µM) | 4 (≈ 8.9 µM) | 8 (≈ 17.8 µM)
30 | N#Cc1ccc2ccnc(N3CCN(CCCNc4cc(=O)oc5ccccc45)CC3)c2c1 | 2.3 | 6.8 | 1.7 | 5.1 | 2 (≈ 4.55 µM) | 8 (≈ 18.2 µM) | 4 (≈ 9.1 µM) | > 8
31 | O=c1cc(NCCCN2CCN(c3nccc4ccc(F)cc34)CC2)c2c(o1)CCSC2 | 1.3 | 1.3 | 8 | 15 |  |  |  | 
32 | O=C(NCCCN1CCN(c2nccc3ccccc23)CC1)c1ccccc1 | 112 | 20 | 130 | 489 | 256 (≈ 684 µM) | 16 (≈ 42.7 µM) | 32 (≈ 85.5 µM) | 
33 | O=c1cc(OCCCN2CCN(c3nccc4ccccc34)CC2)c2ccccc2o1 | 6.2 | 28.3 | 22.6 | > 100 |  |  |  | 
34 | O=c1cc(NCCCN2CCN(c3nccc4ccc(F)cc34)CC2)c2ccccc2o1 | 0.8 | 2.8 | 1.7 | 11.8 |  |  |  | 
35 | O=c1cc(CC(O)CCN2CCN(c3nccc4ccc(F)cc34)CC2)c2ccccc2o1 (racemic) | 2.8 | 0.8 | 2.5 | 1.7 | 8 (≈ 17.9 µM) | 1 (≈ 2.23 µM) | 4 (≈ 8.94 µM) | > 8
36 | O=c1cc(NCCN2CCN(c3nccc4ccccc34)CC2)c2ccccc2o1 |  | 6.9 | 6.7 | > 100 |  |  |  | 
